{
  "source": "patent US20110250184A1",
  "about": "“METHODS FOR DETERMINING EFFICACY OF A THERAPEUTIC REGIMEN AGAINST DELETERIOUS EFFECTS OF CYTOTOXIC AGENTS IN HUMAN” (priority 2008, published 2011)",
  "test_system": "human bone marrow cells",
  "experiment": "In vitro radiation protection of human bone marrow cells (methocult CFU)",
  "format": "cell-based",
  "protocol": "FIG. 3. In vitro radiation protection of human bone marrow cells. Human bone marrow cells were treated with increasing concentrations of ON 01210.Na for 3 hours, and then irradiated with increasing doses of ionizing radiation. The cells were plated into methocult and the total number of CFUs was determined 14 days later.\nRadiation protection assays were then performed (FIG. 3). Cells were treated with ON 01210.Na for 3 hours, irradiated, and plated in methocult. The total number of colony forming units was determined 14 days later. […] This compared very favorably when analyzed against protection studies using amifostine as a positive control.\nHuman bone marrow cells were treated with increasing concentrations of ON 01210.Na for 3 hours, and then irradiated with increasing doses of ionizing radiation. The cells were plated into methocult and the total number of CFUs was determined 14 days later.\nWhen we plotted the survival curve at the optimal concentration of ON 01210.Na (FIG. 3C) we were able to calculate a dose reduction factor (DRF) of 1.6. We also tested the radiation protection activity of amifostine. Amifostine concentrations were selected that closely mimicked the therapeutic plasma concentrations. […] The calculated DRF value of 1.5 was determined from these experiments.",
  "data": [
    {"smiles": "NCCCNCCSP(=O)(O)O", "note": "[amifostine, reference compound]", "values": [
      {"measurement": "optimal concentration for radiation protection", "setting": "amifostine", "value": 0.25, "unit": "mM"},
      {"measurement": "dose reduction factor (DRF)", "setting": "amifostine 0.25 mM (optimal)", "value": 1.5},
      {"measurement": "range of concentrations that protected cells", "setting": "data not shown", "value": "narrow range of concentrations"}
    ]}
  ]
}
